Assay results published in ChEMBL document CHEMBL3792274, “Neuroprotective oleanane triterpenes from the roots of Bupleurum chinense” (Bioorg Med Chem Lett, 2016).

Columns and labels:
SH-SY5Y [1] = assay: Neuroprotective activity against H2O2-induced neuronal cell death in human SH-SY5Y cells assessed as cell viability at 50 uM pretreated for 12 hrs followed by H2O2 addition measured after 3 hrs by MTT assay relative to control; type: functional; settings: read-out: Activity
HepG2 = assay: Cytotoxicity against human HepG2 cells after 48 hrs by MTT assay; type: cell-based; settings: HepG2, 48 h
Bcap37 = assay: Cytotoxicity against human Bcap37 cells after 48 hrs by MTT assay; type: cell-based; settings: Bcap37, 48 h
MCF7 = assay: Cytotoxicity against human MCF7 cells after 48 hrs by MTT assay; type: cell-based; settings: MCF7, 48 h
SH-SY5Y [2] = assay: Neuroprotective activity against H2O2-induced neuronal cell death in human SH-SY5Y cells assessed as cell viability at 100 uM pretreated for 12 hrs followed by H2O2 addition measured after 3 hrs by MTT assay relative to control; type: functional; settings: read-out: Activity
SH-SY5Y [3] = assay: Neuroprotective activity against H2O2-induced neuronal cell death in human SH-SY5Y cells assessed as cell viability at 25 uM pretreated for 12 hrs followed by H2O2 addition measured after 3 hrs by MTT assay relative to control; type: functional; settings: read-out: Activity
A549 = assay: Cytotoxicity against human A549 cells after 48 hrs by MTT assay; type: cell-based; settings: A549, 48 h
[4] = Cytotoxicity against human Hep3B cells after 48 hrs by MTT assay; type: cell-based, Hep 3B2

CC1(C)CC[C@]23CO[C@@]4(C=C[C@@H]5[C@@]6(C)CC[C@H](O)[C@@](C)(CO)[C@@H]6CC[C@@]5(C)[C@]4(C)C[C@@H]2O)[C@@H]3C1
viability at 50 µM (SH-SY5Y [1]): 74.2%
IC50 (HepG2): 75.7 µM
IC50 (Bcap37): > 80 µM
IC50 (MCF7): > 80 µM
viability at 100 µM (SH-SY5Y [2]): 43.5%
viability at 25 µM (SH-SY5Y [3]): 66.7%
IC50 (A549): > 80 µM
IC50 [4]: > 80 µM

CC1(C)CC[C@]23CO[C@@]4(C=C[C@@H]5[C@@]6(C)CC[C@H](O)[C@@](C)(CO)[C@@H]6CC[C@@]5(C)[C@]4(C)C[C@H]2O)[C@@H]3C1
viability at 50 µM (SH-SY5Y [1]): 62.4%
IC50 (HepG2): 63.4 µM
IC50 (Bcap37): > 80 µM
IC50 (MCF7): > 80 µM
viability at 100 µM (SH-SY5Y [2]): 62.6%
viability at 25 µM (SH-SY5Y [3]): 70%
IC50 (A549): > 80 µM
IC50 [4]: > 80 µM

CC1(C)CC[C@@]2(CO)C(=C3C=C[C@@H]4[C@@]5(C)CC[C@H](O)[C@@](C)(CO)[C@@H]5CC[C@@]4(C)[C@]3(C)C[C@@H]2O)C1
viability at 50 µM (SH-SY5Y [1]): 79.9%
IC50 (HepG2): > 80 µM
IC50 (Bcap37): > 80 µM
IC50 (MCF7): > 80 µM
viability at 100 µM (SH-SY5Y [2]): 78%
viability at 25 µM (SH-SY5Y [3]): 81.4%
IC50 (A549): > 80 µM
IC50 [4]: > 80 µM

CO[C@@H]1C=C2[C@@H]3CC(C)(C)CC[C@]3(CO)[C@@H](O)C[C@@]2(C)[C@]2(C)CC[C@H]3C(C)(C)[C@@H](O[C@@H]4O[C@H](C)[C@H](O)[C@H](O[C@@H]5O[C@H](CO)[C@@H](O)[C@H](O)[C@H]5O)[C@H]4O)CC[C@]3(C)[C@@H]12
viability at 50 µM (SH-SY5Y [1]): 7.15%
IC50 (HepG2): 43.2 µM
IC50 (Bcap37): > 80 µM
IC50 (MCF7): > 80 µM
viability at 100 µM (SH-SY5Y [2]): 6.02%
viability at 25 µM (SH-SY5Y [3]): 64.9%
IC50 (A549): > 80 µM
IC50 [4]: > 80 µM

CC1(C)CC[C@@]2(CO)C(=C3C=C[C@@H]4[C@@]5(C)CC[C@H](O)[C@@](C)(CO)[C@@H]5CC[C@@]4(C)[C@]3(C)C[C@H]2O)C1
viability at 50 µM (SH-SY5Y [1]): 82.5%
IC50 (HepG2): > 80 µM
IC50 (Bcap37): > 80 µM
IC50 (MCF7): > 80 µM
viability at 100 µM (SH-SY5Y [2]): 79.3%
viability at 25 µM (SH-SY5Y [3]): 83.4%
IC50 (A549): > 80 µM
IC50 [4]: > 80 µM

C[C@H]1O[C@@H](O[C@H]2CC[C@@]3(C)[C@@H](CC[C@]4(C)[C@@H]3[C@H](O)C=C3[C@@H]5CC(C)(C)CC[C@]5(CO)[C@@H](O)C[C@]34C)[C@]2(C)CO)[C@H](O)[C@@H](O[C@@H]2O[C@H](CO)[C@@H](O)[C@H](O)[C@H]2O)[C@H]1O
viability at 50 µM (SH-SY5Y [1]): 54.4%
IC50 (HepG2): > 80 µM
IC50 (Bcap37): > 80 µM
IC50 (MCF7): > 80 µM
viability at 100 µM (SH-SY5Y [2]): 55.6%
viability at 25 µM (SH-SY5Y [3]): 57.5%
IC50 (A549): > 80 µM
IC50 [4]: > 80 µM

C[C@H]1O[C@@H](O[C@H]2CC[C@@]3(C)[C@@H](CC[C@]4(C)[C@@H]3C=CC3=C5CC(C)(C)CC[C@]5(CO)[C@H](O)C[C@]34C)[C@]2(C)CO)[C@H](O)[C@@H](O[C@@H]2O[C@H](CO)[C@@H](O)[C@H](O)[C@H]2O)[C@H]1O
viability at 50 µM (SH-SY5Y [1]): 59.5%
IC50 (HepG2): 35.1 µM
IC50 (Bcap37): > 80 µM
IC50 (MCF7): > 80 µM
viability at 100 µM (SH-SY5Y [2]): 33.3%
viability at 25 µM (SH-SY5Y [3]): 66.9%
IC50 (A549): > 80 µM
IC50 [4]: > 80 µM

CC(=O)OC[C@H]1O[C@@H](O[C@H]2[C@@H](O)[C@@H](C)O[C@@H](O[C@H]3CC[C@@]4(C)[C@@H](CC[C@]5(C)[C@@H]4C=CC4=C6CC(C)(C)CC[C@]6(CO)[C@H](O)C[C@]45C)[C@]3(C)CO)[C@@H]2O)[C@H](O)[C@@H](O)[C@@H]1O
viability at 50 µM (SH-SY5Y [1]): 7.24%
IC50 (HepG2): 21.8 µM
IC50 (Bcap37): > 80 µM
IC50 (MCF7): 46.5 µM
viability at 100 µM (SH-SY5Y [2]): 7.64%
viability at 25 µM (SH-SY5Y [3]): 14.3%
IC50 (A549): 69.3 µM
IC50 [4]: > 80 µM

CO[C@@H]1C=C2[C@@H]3CC(C)(C)CC[C@]3(CO)[C@H](O)C[C@@]2(C)[C@]2(C)CC[C@H]3[C@](C)(CO)[C@@H](O[C@@H]4O[C@H](C)[C@H](O)[C@H](O[C@@H]5O[C@H](COC(C)=O)[C@@H](O)[C@H](O)[C@H]5O)[C@H]4O)CC[C@]3(C)[C@@H]12
viability at 50 µM (SH-SY5Y [1]): 7.12%
viability at 100 µM (SH-SY5Y [2]): 7.16%
viability at 25 µM (SH-SY5Y [3]): 11.7%

C[C@H]1O[C@@H](O[C@H]2CC[C@@]3(C)[C@@H](CC[C@]4(C)[C@@H]3[C@H](O)C=C3[C@@H]5CC(C)(C)CC[C@]5(CO)[C@@H](O)C[C@]34C)[C@]2(C)CO)[C@H](O)[C@@H](O)[C@H]1O
viability at 50 µM (SH-SY5Y [1]): 11.4%
IC50 (HepG2): 19.4 µM
IC50 (Bcap37): 20.2 µM
IC50 (MCF7): 29.4 µM
viability at 100 µM (SH-SY5Y [2]): 6.3%
viability at 25 µM (SH-SY5Y [3]): 67.6%
IC50 (A549): 58.1 µM
IC50 [4]: 39.6 µM

CC1(C)CC[C@]2(CO)C(=O)C[C@]3(C)C(=C2C1)C=C[C@@H]1[C@@]2(C)CC[C@H](O)[C@@](C)(CO)[C@@H]2CC[C@]13C
viability at 50 µM (SH-SY5Y [1]): 80.6%
IC50 (HepG2): > 80 µM
IC50 (Bcap37): > 80 µM
IC50 (MCF7): > 80 µM
viability at 100 µM (SH-SY5Y [2]): 77.8%
viability at 25 µM (SH-SY5Y [3]): 78.2%
IC50 (A549): > 80 µM
IC50 [4]: > 80 µM

CO[C@@H]1C=C2[C@@H]3CC(C)(C)C[C@H](O)[C@]3(CO)[C@@H](O)C[C@@]2(C)[C@]2(C)CC[C@@H]3[C@](C)(CCC(=O)[C@@]3(C)CO)[C@@H]12
viability at 50 µM (SH-SY5Y [1]): 70.2%
IC50 (HepG2): 65.9 µM
IC50 (Bcap37): > 80 µM
IC50 (MCF7): > 80 µM
viability at 100 µM (SH-SY5Y [2]): 67.2%
viability at 25 µM (SH-SY5Y [3]): 75.6%
IC50 (A549): > 80 µM
IC50 [4]: > 80 µM

CC1(C)CC[C@@]2(CO)C(=C3C=C[C@@H]4[C@@]5(C)CCC(=O)[C@@](C)(CO)[C@@H]5CC[C@@]4(C)[C@]3(C)C[C@H]2O)C1
viability at 50 µM (SH-SY5Y [1]): 74.1%
IC50 (HepG2): > 80 µM
IC50 (Bcap37): > 80 µM
IC50 (MCF7): > 80 µM
viability at 100 µM (SH-SY5Y [2]): 75.1%
viability at 25 µM (SH-SY5Y [3]): 77.2%
IC50 (A549): > 80 µM
IC50 [4]: > 80 µM

CO[C@@H]1C=C2[C@@H]3CC(C)(C)CC[C@]3(CO)[C@@H](O)C[C@@]2(C)[C@]2(C)CC[C@H]3[C@](C)(CO)[C@@H](O[C@@H]4O[C@H](C)[C@H](O)[C@H](O[C@@H]5O[C@H](CO)[C@@H](O)[C@H](O)[C@H]5O)[C@H]4O)CC[C@]3(C)[C@@H]12
viability at 50 µM (SH-SY5Y [1]): 8.25%
IC50 (HepG2): 27.5 µM
IC50 (Bcap37): > 80 µM
IC50 (MCF7): 64.3 µM
viability at 100 µM (SH-SY5Y [2]): 6.16%
viability at 25 µM (SH-SY5Y [3]): 63.1%
IC50 (A549): > 80 µM
IC50 [4]: > 80 µM

CC(=O)O[C@H]1[C@H](O[C@H]2[C@@H](O)[C@@H](C)O[C@@H](O[C@H]3CC[C@@]4(C)[C@@H](CC[C@]5(C)[C@@H]4C=CC4=C6CC(C)(C)CC[C@]6(CO)[C@H](O)C[C@]45C)[C@]3(C)CO)[C@@H]2O)O[C@H](CO)[C@@H](O)[C@@H]1O
viability at 50 µM (SH-SY5Y [1]): 7.28%
IC50 (HepG2): 18.9 µM
IC50 (Bcap37): 23.5 µM
IC50 (MCF7): 42.2 µM
viability at 100 µM (SH-SY5Y [2]): 7.36%
viability at 25 µM (SH-SY5Y [3]): 9.38%
IC50 (A549): 56 µM
IC50 [4]: 23 µM

CO[C@H]1C=C2[C@H]3CC(C)(C)CC[C@@]3(CO)[C@H](O)C[C@]2(C)[C@@]2(C)CC[C@@H]3C(C)(C)[C@H](O[C@@H]4O[C@H](CO[C@H]5O[C@@H](CO)[C@H](O)[C@@H](O)[C@@H]5O)[C@@H](O[C@@H]5O[C@@H](C)[C@H](O)[C@@H](O)[C@H]5O)[C@H](O)[C@H]4O)CC[C@@]3(C)[C@H]12
viability at 50 µM (SH-SY5Y [1]): 50%
IC50 (HepG2): > 80 µM
IC50 (Bcap37): > 80 µM
IC50 (MCF7): > 80 µM
viability at 100 µM (SH-SY5Y [2]): 20.2%
viability at 25 µM (SH-SY5Y [3]): 58.4%
IC50 (A549): > 80 µM
IC50 [4]: 75.7 µM

C[C@@H]1O[C@@H](O[C@H]2[C@H](O)[C@@H](O)[C@H](O[C@@H]3CC[C@]4(C)[C@H](CC[C@@]5(C)[C@H]4CC=C4[C@H]6CC(C)(C)CC[C@@]6(CO)[C@H](O)C[C@@]45C)C3(C)C)O[C@@H]2CO[C@H]2O[C@@H](CO)[C@H](O)[C@@H](O)[C@@H]2O)[C@H](O)[C@H](O)[C@H]1O
viability at 50 µM (SH-SY5Y [1]): 53%
IC50 (HepG2): > 80 µM
IC50 (Bcap37): > 80 µM
IC50 (MCF7): > 80 µM
viability at 100 µM (SH-SY5Y [2]): 8.66%
viability at 25 µM (SH-SY5Y [3]): 51.4%
IC50 (A549): > 80 µM
IC50 [4]: 37.8 µM

O=c1[nH]cc(F)c(=O)[nH]1 [FLUOROURACIL]
IC50 (HepG2): 49.7 µM
IC50 (Bcap37): 47.1 µM
IC50 (MCF7): 42.8 µM
IC50 [4]: 10.5 µM

Cc1c(C)c2c(c(C)c1O)CCC(C)(C(=O)O)O2 (stereo not drawn) [TROLOX]
viability at 50 µM (SH-SY5Y [1]): 73.7%
viability at 100 µM (SH-SY5Y [2]): 75.2%
viability at 25 µM (SH-SY5Y [3]): 67%
